“And” between values parts separate entries of the source, which are not always exact repeats. Equal values may be shown once. Toxic doses and inconclusive results are not listed.
System: L1210 leukemia ip in BDF1 mice, survival T/C
Assay: NCI In Vivo Anticancer Drug Screen. Data for tumor model L1210 Leukemia (intraperitoneal) in B6D2F1 (BDF1) mice
Conditions: endpoint: mean survival time, higher = longer survival
Outline: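 Read-out is survival time, reported as the treated-group measurement over the vehicle-control measurement.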

[1] = dose: 100.0 mg/kg/injection, schedule: Q04DX003 (ip), vehicle: saline with Tween-80
[2] = dose: 200.0 mg/kg/injection, schedule: Q04DX003 (ip), vehicle: saline with Tween-80
[3] = dose: 100.0 mg/kg/injection, schedule: Q01DX009 (ip), vehicle: Klucel (hydroxypropylcellulose) (HPC)
[4] = dose: 200.0 mg/kg/injection, schedule: Q01DX009 (ip), vehicle: Klucel (hydroxypropylcellulose) (HPC)
[5] = dose: 400.0 mg/kg/injection, schedule: Q01DX009 (ip), vehicle: Klucel (hydroxypropylcellulose) (HPC)
[6] = dose: 100.0 mg/kg/injection, schedule: Q01DX001 (ip), vehicle: carboxymethylcellulose (CMC)
[7] = dose: 200.0 mg/kg/injection, schedule: Q01DX001 (ip), vehicle: carboxymethylcellulose (CMC)
[8] = dose: 400.0 mg/kg/injection, schedule: Q01DX001 (ip), vehicle: carboxymethylcellulose (CMC)

## CC/C(=C(\CC)c1ccc(OCCOS(C)(=O)=O)cc1)c1ccc(OCCOS(C)(=O)=O)cc1
dose: 12.5 mg/kg/injection, schedule: Q04DX002 (ip), vehicle: saline
  T/C: 97 % of control
dose: 25.0 mg/kg/injection, schedule: Q04DX002 (ip), vehicle: saline
  T/C: 101 % of control
dose: 50.0 mg/kg/injection, schedule: Q04DX002 (ip), vehicle: saline
  T/C: 94 % of control

## CCC1N(C)CCCN1C
[1]
  T/C: 97 % of control
[2]
  T/C: 95 % of control

## CCC[CH2][Sn]1([CH2]CCC)[O]OC(c2ccc(OC)cc2)[O]1 (centres undefined)
dose: 6.25 mg/kg/injection, schedule: Q01DX005 (sc), vehicle: olive oil, sesame oil, peanut oil
  T/C: 95 % of control
dose: 6.25 mg/kg/injection, schedule: Q01DX009 (sc), vehicle: olive oil, sesame oil, peanut oil
  T/C: 104 % of control and 88 % of control
dose: 12.5 mg/kg/injection, schedule: Q01DX005 (sc), vehicle: olive oil, sesame oil, peanut oil
  T/C: 106 % of control
dose: 12.5 mg/kg/injection, schedule: Q01DX009 (sc), vehicle: olive oil, sesame oil, peanut oil
  T/C: 104 % of control and 91 % of control
dose: 25.0 mg/kg/injection, schedule: Q01DX005 (sc), vehicle: olive oil, sesame oil, peanut oil
  T/C: 95 % of control
dose: 25.0 mg/kg/injection, schedule: Q04DX002 (sc), vehicle: olive oil, sesame oil, peanut oil
  T/C: 97 % of control
dose: 50.0 mg/kg/injection, schedule: Q04DX002 (sc), vehicle: olive oil, sesame oil, peanut oil
  T/C: 106 % of control
dose: 100.0 mg/kg/injection, schedule: Q04DX002 (sc), vehicle: olive oil, sesame oil, peanut oil
  T/C: 100 % of control

## O=C(Nc1cccc(F)c1)N(CC(O)c1ccccc1)C1CCCCC1 (centres undefined)
[3]
  T/C: 114 % of control
[4]
  T/C: 100 % of control
[5]
  T/C: 97 % of control

## CCOC(=O)C/C(=N\NC(=O)c1ccccc1O)C(=O)OCC
dose: 50.0 mg/kg/injection, schedule: Q01DX009 (ip), vehicle: Klucel (hydroxypropylcellulose) (HPC)
  T/C: 101 % of control
[3]
  T/C: 107 % of control
[4]
  T/C: 102 % of control
[5]
  T/C: 101 % of control

## N#Cc1c(Br)n(C2OC(CO)C(O)C2O)c2ncncc12 (centres undefined)
dose: 100.0 mg/kg/injection, schedule: Q01DX005 (ip), vehicle: saline
  T/C: 114 % of control
dose: 200.0 mg/kg/injection, schedule: Q01DX005 (ip), vehicle: saline
  T/C: 114 % of control

## Cc1ccc(C)c(C[P+](c2ccccc2)(c2ccccc2)c2ccccc2)c1
dose: 15.0 mg/kg/injection, schedule: Q01DX001 (ip), vehicle: saline
  T/C: 104 % of control

## CC(=O)/C=C/c1ccco1
dose: 12.5 mg/kg/injection, schedule: Q01DX009 (ip), vehicle: DMSO
  T/C: 101 % of control
dose: 25.0 mg/kg/injection, schedule: Q01DX009 (ip), vehicle: DMSO
  T/C: 97 % of control
dose: 25.0 mg/kg/injection, schedule: Q04DX003 (ip), vehicle: DMSO
  T/C: 96 % of control
dose: 50.0 mg/kg/injection, schedule: Q01DX009 (ip), vehicle: DMSO
  T/C: 92 % of control
dose: 50.0 mg/kg/injection, schedule: Q04DX003 (ip), vehicle: DMSO
  T/C: 108 % of control
dose: 100.0 mg/kg/injection, schedule: Q04DX003 (ip), vehicle: DMSO
  T/C: 98 % of control

## COc1cccc(NC(=S)NN)c1
dose: 12.5 mg/kg/injection, schedule: Q04DX002 (ip), vehicle: Klucel (hydroxypropylcellulose) (HPC)
  T/C: 92 % of control
dose: 25.0 mg/kg/injection, schedule: Q04DX002 (ip), vehicle: Klucel (hydroxypropylcellulose) (HPC)
  T/C: 117 % of control

## NS(=O)(=O)O.[Ni]
dose: 16.0 mg/kg/injection, schedule: Q04DX003 (ip), vehicle: saline
  T/C: 108 % of control
dose: 25.0 mg/kg/injection, schedule: Q04DX003 (ip), vehicle: saline
  T/C: 92 % of control
dose: 35.0 mg/kg/injection, schedule: Q04DX003 (ip), vehicle: saline
  T/C: 93 % of control
dose: 50.0 mg/kg/injection, schedule: Q04DX003 (ip), vehicle: saline
  T/C: 103 % of control

## O=C1NC(C2CCC3CN32)C(=O)NC1C1CCC2CN21 (centres undefined)
dose: 0.2 mg/kg/injection, schedule: Q01DX009 (ip), vehicle: saline
  T/C: 102 % of control and 105 % of control
dose: 0.4 mg/kg/injection, schedule: Q01DX009 (ip), vehicle: saline
  T/C: 110 % of control and 113 % of control
dose: 0.5 mg/kg/injection, schedule: Q01DX001 (ip), vehicle: Klucel (hydroxypropylcellulose) (HPC)
  T/C: 101 % of control
dose: 0.8 mg/kg/injection, schedule: Q01DX009 (ip), vehicle: saline
  T/C: 110 % of control
dose: 1.0 mg/kg/injection, schedule: Q01DX001 (ip), vehicle: Klucel (hydroxypropylcellulose) (HPC)
  T/C: 101 % of control
dose: 1.1 mg/kg/injection, schedule: Q01DX009 (ip), vehicle: saline
  T/C: 112 % of control
dose: 2.0 mg/kg/injection, schedule: Q01DX001 (ip), vehicle: Klucel (hydroxypropylcellulose) (HPC)
  T/C: 151 % of control
dose: 2.7 mg/kg/injection, schedule: Q01DX009 (ip), vehicle: saline
  T/C: 163 % of control
dose: 5.0 mg/kg/injection, schedule: Q01DX009 (ip), vehicle: saline
  T/C: 182 % of control
dose: 10.0 mg/kg/injection, schedule: Q01DX009 (ip), vehicle: saline
  T/C: 103 % of control
dose: 16.0 mg/kg/injection, schedule: Q01DX001 (ip), vehicle: Klucel (hydroxypropylcellulose) (HPC)
  T/C: 164 % of control and 271 % of control
dose: 24.0 mg/kg/injection, schedule: Q01DX001 (ip), vehicle: Klucel (hydroxypropylcellulose) (HPC)
  T/C: 169 % of control
dose: 36.0 mg/kg/injection, schedule: Q01DX001 (ip), vehicle: Klucel (hydroxypropylcellulose) (HPC)
  T/C: 101 % of control

## c1ccc(CCN(c2ccccc2)c2ccccc2)cc1
[6]
  T/C: 100 % of control
[7]
  T/C: 103 % of control
[8]
  T/C: 103 % of control

## O=[As]O
dose: 0.5 mg/kg/injection, schedule: Q01DX015 (ip), vehicle: carboxymethylcellulose (CMC)
  T/C: 97 % of control
dose: 1.0 mg/kg/injection, schedule: Q01DX015 (ip), vehicle: carboxymethylcellulose (CMC)
  T/C: 93 % of control
dose: 1.53 mg/kg/injection, schedule: Q01DX Z (ip), vehicle: carboxymethylcellulose (CMC)
  T/C: 110 % of control
dose: 2.0 mg/kg/injection, schedule: Q01DX015 (ip), vehicle: carboxymethylcellulose (CMC)
  T/C: 97 % of control
dose: 3.15 mg/kg/injection, schedule: Q01DX Z (ip), vehicle: carboxymethylcellulose (CMC)
  T/C: 98 % of control
dose: 4.0 mg/kg/injection, schedule: Q01DX015 (ip), vehicle: carboxymethylcellulose (CMC)
  T/C: 97 % of control
dose: 5.0 mg/kg/injection, schedule: Q01DX015 (ip), vehicle: carboxymethylcellulose (CMC)
  T/C: 88 % of control
dose: 6.3 mg/kg/injection, schedule: Q01DX Z (ip), vehicle: carboxymethylcellulose (CMC)
  T/C: 104 % of control
dose: 10.0 mg/kg/injection, schedule: Q01DX015 (ip), vehicle: carboxymethylcellulose (CMC)
  T/C: 87 % of control
dose: 12.6 mg/kg/injection, schedule: Q01DX Z (ip), vehicle: carboxymethylcellulose (CMC)
  T/C: 104 % of control

## Nc1ccc(CCCC(=O)NCc2cccnc2)cc1
dose: 100.0 mg/kg/injection, schedule: Q01DX009 (ip), vehicle: saline with Tween-80
  T/C: 105 % of control
dose: 200.0 mg/kg/injection, schedule: Q01DX009 (ip), vehicle: saline with Tween-80
  T/C: 94 % of control
dose: 400.0 mg/kg/injection, schedule: Q01DX009 (ip), vehicle: saline with Tween-80
  T/C: 96 % of control

## COC(=O)[CH](C[N+](=O)[O-])[Hg][Cl] (centres undefined)
dose: 3.12 mg/kg/injection, schedule: Q01DX009 (ip), vehicle: saline
  T/C: 94 % of control
dose: 6.25 mg/kg/injection, schedule: Q01DX009 (ip), vehicle: saline
  T/C: 94 % of control

## Nc1nc(N)c(C=Nc2ccc(Br)cc2)c(Nc2ccc(Br)cc2)n1
dose: 50.0 mg/kg/injection, schedule: Q01DX001 (ip), vehicle: alcohol
  T/C: 100 % of control

## O=[N+]([O-])c1ccc(C2OCCO2)cc1
[6]
  T/C: 94 % of control
[7]
  T/C: 91 % of control
[8]
  T/C: 96 % of control

## COC(=O)c1ccc(C(=O)NCCCc2c(C)nc(N)[nH]c2=O)cc1
dose: 100.0 mg/kg/injection, schedule: Q01DX001 (ip), vehicle: Klucel (hydroxypropylcellulose) (HPC)
  T/C: 97 % of control
dose: 200.0 mg/kg/injection, schedule: Q01DX001 (ip), vehicle: Klucel (hydroxypropylcellulose) (HPC)
  T/C: 92 % of control
dose: 400.0 mg/kg/injection, schedule: Q01DX001 (ip), vehicle: Klucel (hydroxypropylcellulose) (HPC)
  T/C: 92 % of control

## O=C(O)c1ccccc1Nc1cccc(C(F)(F)F)c1
[1]
  T/C: 104 % of control
[2]
  T/C: 104 % of control
dose: 400.0 mg/kg/injection, schedule: Q04DX003 (ip), vehicle: saline with Tween-80
  T/C: 104 % of control

## Cc1c(Cl)cccc1NC(=O)C1CC(Br)C(Br)CC1C(=O)O (centres undefined)
dose: 100.0 mg/kg/injection, schedule: Q04DX002 (ip), vehicle: Klucel (hydroxypropylcellulose) (HPC)
  T/C: 95 % of control
dose: 200.0 mg/kg/injection, schedule: Q04DX002 (ip), vehicle: Klucel (hydroxypropylcellulose) (HPC)
  T/C: 103 % of control
dose: 400.0 mg/kg/injection, schedule: Q04DX002 (ip), vehicle: Klucel (hydroxypropylcellulose) (HPC)
  T/C: 95 % of control
